Test results: patent US12187699B2, “GSPT1 compounds and methods of use of the novel compounds” (BRISTOL-MYERS SQUIBB COMPANY, priority 2022, dated 2025)

Each molecule was assayed against T1, ePL-tagged GSPT1 (Homo sapiens, UniProt P15170+Q96SW2) (assay: GSPT1 DiscoverX Degradation Assay). Conditions: DF15 multiple myeloma cells expressing ePL-tagged GSPT1; twenty hours; minimum of percent of control curve (Ataluren control Y constant=0, DMSO control = Y max).
T1 construct: expressed in transfected cells; host or cells: DF15 multiple myeloma cells
T1 sequence (P15170 whole entry): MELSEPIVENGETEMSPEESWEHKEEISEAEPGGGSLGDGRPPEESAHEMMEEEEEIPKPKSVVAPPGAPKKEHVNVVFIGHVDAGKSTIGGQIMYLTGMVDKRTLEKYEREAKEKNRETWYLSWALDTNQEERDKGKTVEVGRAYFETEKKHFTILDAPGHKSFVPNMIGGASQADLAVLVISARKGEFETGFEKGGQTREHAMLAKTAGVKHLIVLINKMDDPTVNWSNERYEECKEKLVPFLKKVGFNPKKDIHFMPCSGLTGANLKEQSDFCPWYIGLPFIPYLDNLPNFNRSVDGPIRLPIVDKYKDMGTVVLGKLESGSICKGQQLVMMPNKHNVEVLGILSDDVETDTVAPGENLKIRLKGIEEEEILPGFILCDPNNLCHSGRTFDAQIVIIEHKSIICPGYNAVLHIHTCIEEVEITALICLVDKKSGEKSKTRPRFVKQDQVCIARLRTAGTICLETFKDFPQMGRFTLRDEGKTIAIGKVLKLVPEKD
T1 sequence (Q96SW2 whole entry): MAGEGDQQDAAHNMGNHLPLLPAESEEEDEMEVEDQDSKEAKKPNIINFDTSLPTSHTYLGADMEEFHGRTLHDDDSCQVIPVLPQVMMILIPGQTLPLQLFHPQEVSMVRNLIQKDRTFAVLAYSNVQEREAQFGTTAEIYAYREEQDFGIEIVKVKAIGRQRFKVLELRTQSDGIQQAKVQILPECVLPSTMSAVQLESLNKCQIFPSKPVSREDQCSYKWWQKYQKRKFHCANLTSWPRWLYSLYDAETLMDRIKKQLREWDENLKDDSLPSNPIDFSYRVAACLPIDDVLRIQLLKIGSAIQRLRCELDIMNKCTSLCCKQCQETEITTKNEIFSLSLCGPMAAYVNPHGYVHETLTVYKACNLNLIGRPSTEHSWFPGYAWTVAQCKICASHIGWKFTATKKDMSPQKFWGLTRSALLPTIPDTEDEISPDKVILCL
T1 sequence (Q16531 whole entry partner): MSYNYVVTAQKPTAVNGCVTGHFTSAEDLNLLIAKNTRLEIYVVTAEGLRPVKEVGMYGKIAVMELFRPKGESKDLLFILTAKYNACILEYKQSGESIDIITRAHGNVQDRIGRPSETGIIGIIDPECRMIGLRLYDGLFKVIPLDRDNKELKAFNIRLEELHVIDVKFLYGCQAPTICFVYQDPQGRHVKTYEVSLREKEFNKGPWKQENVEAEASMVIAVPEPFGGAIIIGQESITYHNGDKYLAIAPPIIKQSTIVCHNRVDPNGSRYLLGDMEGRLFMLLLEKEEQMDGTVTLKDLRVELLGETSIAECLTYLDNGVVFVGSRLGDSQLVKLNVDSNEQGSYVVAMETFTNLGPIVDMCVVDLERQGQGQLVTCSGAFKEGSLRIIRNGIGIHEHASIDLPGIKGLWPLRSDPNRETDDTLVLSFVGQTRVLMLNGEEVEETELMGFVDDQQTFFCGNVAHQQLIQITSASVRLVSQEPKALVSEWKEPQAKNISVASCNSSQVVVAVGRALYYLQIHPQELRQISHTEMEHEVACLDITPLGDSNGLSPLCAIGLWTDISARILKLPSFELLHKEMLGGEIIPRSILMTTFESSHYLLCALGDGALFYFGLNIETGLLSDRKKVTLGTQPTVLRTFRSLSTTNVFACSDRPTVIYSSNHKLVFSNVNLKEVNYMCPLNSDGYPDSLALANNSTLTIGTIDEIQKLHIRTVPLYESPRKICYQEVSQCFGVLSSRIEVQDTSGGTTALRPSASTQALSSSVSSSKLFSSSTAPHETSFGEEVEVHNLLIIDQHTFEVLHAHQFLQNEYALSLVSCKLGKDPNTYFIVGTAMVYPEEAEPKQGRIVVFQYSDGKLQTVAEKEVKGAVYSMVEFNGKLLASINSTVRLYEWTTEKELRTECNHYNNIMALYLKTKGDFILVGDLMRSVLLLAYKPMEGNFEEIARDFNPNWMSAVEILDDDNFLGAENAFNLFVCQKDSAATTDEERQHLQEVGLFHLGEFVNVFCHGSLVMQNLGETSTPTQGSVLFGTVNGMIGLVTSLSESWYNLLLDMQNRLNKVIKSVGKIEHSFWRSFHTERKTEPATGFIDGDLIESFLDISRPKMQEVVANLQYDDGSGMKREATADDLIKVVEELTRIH
Type: cell-based
Method: GSPT1 DiscoverX Degradation Assay.
Compounds were dispensed by an acoustic dispenser (ATS Acoustic Transfer System from EDC Biosystems) into a 384-well in a 10 pt dose response curve using 3 fold dilutions starting at 10 uM and going down to 0.0005 uM in DMSO. A DMSO control is added to the assay. […] Assay plates were incubated at 37° C. with 5% CO2 for twenty hours. After incubation, 25 μl of the InCELL Hunter™ Detection Reagent Working Solution (DiscoverX, cat #96-0002, Fremont, CA) was added to each well and incubated at room temperature for 30 minutes protected from light. After 30 minutes, luminescence was read on a PHERAstar luminometer (Cary, NC).
The minimum Y is reference to the Y constant. In the GSPT1 degradation assay, we use Ataluren® (luciferase inhibitor) as the control with a Y constant=0. The maximum limit is the Y max DMSO control. All percent of control GSPT1 degradation curves were processed and evaluated using Activity Base (IDBS).

SMILES | GSPT1 Degradation Ymin
Nc1ccccc1COc1ccc(NC(=O)NCc2ccc3c(c2)CN(C2CCC(=O)NC2=O)C3=O)cc1 (centres unmarked) [Example 28, 1-(4-((2-aminobenzyl)oxy)phenyl)-3-((2-(2,6-dioxopiperidin-3-yl)-1-oxoisoindolin-5-yl)methyl)urea] | 10.20
NCc1ccc(COc2ccc(NC(=O)NCc3ccc4c(c3)CN(C3CCC(=O)NC3=O)C4=O)cc2Cl)cc1 (centres unmarked) [Example 29, 1-(4-((4-(aminomethyl)benzyl)oxy)-3-chlorophenyl)-3-((2-(2,6-dioxopiperidin-3-yl)-1-oxoisoindolin-5-yl)methyl)urea] | 16.88
CC(C)c1cc(CN)ccc1COc1ccc(NC(=O)NCc2ccc3c(c2)CN(C2CCC(=O)NC2=O)C3=O)cc1 (centres unmarked) [Example 30, 1-(4-{[4-(aminomethyl)-2-i-propylphenyl]methoxy}phenyl)-3-{[2-(2,6-dioxopiperidin-3-yl)-1-oxo-2,3-dihydro-1H-isoindol-5-yl]methyl}urea] | 10.86
NCc1ccc(COc2ccc(NC(=O)NCc3ccc4c(c3)CN(C3CCC(=O)NC3=O)C4=O)cc2)c(OC(F)F)c1 (centres unmarked) [Example 31, 1-(4-{[4-(aminomethyl)-2-diflouromethoxyphenyl]methoxy}phenyl)-3-{[2-(2,6-dioxopiperidin-3-yl)-1-oxo-2,3-dihydro-1H-isoindol-5-yl]methyl}urea] | 7.07
C[C@]1(N2Cc3cc(CNC(=O)Nc4ccc(OCc5ccc(CN)cc5)cc4)ccc3C2=O)CCC(=O)NC1=O [Example 32, 1-(4-{[4-(aminomethyl)phenyl]methoxy}phenyl)-3-({2-[(3S)-3-methyl-2,6-dioxopiperidin-3-yl]-1-oxo-2,3-dihydro-1H-isoindol-5-yl}methyl)urea] | 22.76

More lines, now with the values ahead:

GSPT1 Degradation Ymin | SMILES
60.95 | C[C@@]1(N2Cc3cc(CNC(=O)Nc4ccc(OCc5ccc(CN)cc5)cc4)ccc3C2=O)CCC(=O)NC1=O [Example 33, 1-(4-{[4-(aminomethyl)phenyl]methoxy}phenyl)-3-({2-[(3R)-3-methyl-2,6-dioxopiperidin-3-yl]-1-oxo-2,3-dihydro-1H-isoindol-5-yl}methyl)urea]
7.47 | NC[C@H]1CC[C@H](COc2ccc(NC(=O)NCc3ccc4c(c3)CN(C3CCC(=O)NC3=O)C4=O)cc2)CC1 (some centres unmarked) [Example 34, 3-{[2-(2,6-dioxopiperidin-3-yl)-1-oxo-2,3-dihydro-1H-isoindol-5-yl]methyl}-1-(4-{[(1r,4r)-4-(aminomethyl)cyclohexyl]methoxy}phenyl)urea]
17.59 | NCc1ccc(CO[C@H]2CC[C@H](NC(=O)NCc3ccc4c(c3)CN(C3CCC(=O)NC3=O)C4=O)CC2)cc1 (some centres unmarked) [Example 35, 3-{[2-(2,6-dioxopiperidin-3-yl)-1-oxo-2,3-dihydro-1H-isoindol-5-yl]methyl}-1-[(1r,4r)-4-{[4-(aminomethyl)phenyl]methoxy}cyclohexyl]urea]
